The text below walks through data of US4369191A, “Naphthalenetetrayltetrakis(sulfonylimino)-tetrabenzene di- and tricarboxylic acids” (American Cyanamid Company, priority 1981, dated 1983).

Experiment [1] has as its system late components of human complement (C3-C9). Nature of the experiment: Test Code 035 (C3-C9 inhibitor), lysis of EAC 142. The class given is biochemical. Particulars: in vitro; serial twofold dilution assay, higher well number indicates higher activity. The text has this: (§1) An active inhibitor protects C2 from C1 and C4; (ii) Test Code 035 (C3-C9 inhibitor)--This test determines the ability of the late components of human complement (C3-C9) to lyse EAC 142 in the presence of appropriate dilutions of the test compound. An active inhibitor protects EAC 142 from lysis by human C3-C9; (iii) Test Code 036 (C-Shunt inhibitor)--In this test human erythrocytes rendered fragile are lysed in autologous serum via the shunt pathway activated by cobra venom factor in the presence of appropriate dilutions of the test compound. Inhibition of the shunt pathway results in failure of lysis; (iv) Cap 50 Test--Here, appropriate amounts of the test compound are added to a pool of guinea pig serum in vitro, after which the undiluted serum capillary tube assay of U.S. Pat. No. 3,876,376 is run. The concentration of compound inhibiting 50% is reported; and (v) Guinea Pig Intraperitoneal Test (GPIP)--Guinea pigs weighing about 300 g are dosed intraperitoneally (i.p.) with 200 mg/kg of the test compound dissolved in saline and adjusted to pH 7-8. […] Percent inhibition is calculated by comparison with simultaneous controls. […]

Another experiment has as its target T1, activated human C1 (Homo sapiens, UniProt P09871).
T1 construct: fluid-phase human C2 as substrate in presence of C4
Nature of the experiment: Test Code 026 (C1 inhibitor). Particulars: in vitro; serial twofold dilution assay, higher well number indicates higher activity. The class given is biochemical.
Text: as §1

The next experiment concerns shunt pathway. Nature of the experiment: Test Code 036 (C-Shunt inhibitor), lysis of human erythrocytes in autologous serum activated by cobra venom factor. The class given is cell-based. Particulars: in vitro; serial twofold dilution assay, higher well number indicates higher activity.
Text: as §1

The test system of the next experiment is complement activity. Nature of the experiment: Guinea Pig Intraperitoneal Test (GPIP). The class given is in vivo. Particulars: 200 mg/kg i.p.; for In vivo Activity (Guinea Pigs) % Inhibition Intraperitoneal, 30 minutes: serum complement activity 30 minutes after injection; for In vivo Activity (Guinea Pigs) % Inhibition Intraperitoneal, 60 minutes: serum complement activity 60 minutes after injection; for In vivo Activity (Guinea Pigs) % Inhibition Intraperitoneal, 120 minutes: serum complement activity 120 minutes after injection. An excerpt:
An active inhibitor protects C2 from C1 and C4; (ii) Test Code 035 (C3-C9 inhibitor)--This test determines the ability of the late components of human complement (C3-C9) to lyse EAC 142 in the presence of appropriate dilutions of the test compound. An active inhibitor protects EAC 142 from lysis by human C3-C9; (iii) Test Code 036 (C-Shunt inhibitor)--In this test human erythrocytes rendered fragile are lysed in autologous serum via the shunt pathway activated by cobra venom factor in the presence of appropriate dilutions of the test compound. Inhibition of the shunt pathway results in failure of lysis; (iv) Cap 50 Test--Here, appropriate amounts of the test compound are added to a pool of guinea pig serum in vitro, after which the undiluted serum capillary tube assay of U.S. Pat. No. 3,876,376 is run. The concentration of compound inhibiting 50% is reported; and (v) Guinea Pig Intraperitoneal Test (GPIP)--Guinea pigs weighing about 300 g are dosed intraperitoneally (i.p.) with 200 mg/kg of the test compound dissolved in saline and adjusted to pH 7-8. Approximately 0.4 ml blood samples, taken by orbital sinus puncture 30 minutes and one hour after injections, are collected directly into centrifuge tubes; 5 ml blood samples, taken by decapitation 2 hours after injection are collected directly into diSPo® beakers. The samples were allowed to clot, centrifuged, and the resultant sera were assayed for complement activity using the capillary complement assay. Percent inhibition is calculated by comparison with simultaneous controls. The results of the GPIP appear in Table I together with results of Test Code 026, 035, 036 and Cap 50.

SMILES strings stand for the structures. Structures can show the parent of a compound that is named as a salt.

T1 sequence (P09871 16-688): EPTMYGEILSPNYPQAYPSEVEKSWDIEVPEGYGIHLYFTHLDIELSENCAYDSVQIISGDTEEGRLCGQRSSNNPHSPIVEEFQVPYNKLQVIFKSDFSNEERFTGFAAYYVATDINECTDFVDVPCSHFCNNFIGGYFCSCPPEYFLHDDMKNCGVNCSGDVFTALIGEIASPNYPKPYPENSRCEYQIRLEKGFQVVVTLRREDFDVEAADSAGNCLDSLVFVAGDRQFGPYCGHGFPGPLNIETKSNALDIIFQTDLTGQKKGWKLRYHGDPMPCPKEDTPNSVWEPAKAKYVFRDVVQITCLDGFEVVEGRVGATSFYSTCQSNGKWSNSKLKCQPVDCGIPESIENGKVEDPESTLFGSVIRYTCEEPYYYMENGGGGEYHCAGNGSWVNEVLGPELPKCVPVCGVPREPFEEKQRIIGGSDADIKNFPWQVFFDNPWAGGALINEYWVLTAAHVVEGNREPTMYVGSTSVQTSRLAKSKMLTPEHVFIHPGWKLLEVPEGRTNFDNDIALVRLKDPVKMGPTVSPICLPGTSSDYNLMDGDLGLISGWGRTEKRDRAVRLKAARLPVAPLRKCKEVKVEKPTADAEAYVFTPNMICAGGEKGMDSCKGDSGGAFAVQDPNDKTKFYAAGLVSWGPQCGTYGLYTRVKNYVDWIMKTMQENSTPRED
T1 sequence (P00736 18-705 partner): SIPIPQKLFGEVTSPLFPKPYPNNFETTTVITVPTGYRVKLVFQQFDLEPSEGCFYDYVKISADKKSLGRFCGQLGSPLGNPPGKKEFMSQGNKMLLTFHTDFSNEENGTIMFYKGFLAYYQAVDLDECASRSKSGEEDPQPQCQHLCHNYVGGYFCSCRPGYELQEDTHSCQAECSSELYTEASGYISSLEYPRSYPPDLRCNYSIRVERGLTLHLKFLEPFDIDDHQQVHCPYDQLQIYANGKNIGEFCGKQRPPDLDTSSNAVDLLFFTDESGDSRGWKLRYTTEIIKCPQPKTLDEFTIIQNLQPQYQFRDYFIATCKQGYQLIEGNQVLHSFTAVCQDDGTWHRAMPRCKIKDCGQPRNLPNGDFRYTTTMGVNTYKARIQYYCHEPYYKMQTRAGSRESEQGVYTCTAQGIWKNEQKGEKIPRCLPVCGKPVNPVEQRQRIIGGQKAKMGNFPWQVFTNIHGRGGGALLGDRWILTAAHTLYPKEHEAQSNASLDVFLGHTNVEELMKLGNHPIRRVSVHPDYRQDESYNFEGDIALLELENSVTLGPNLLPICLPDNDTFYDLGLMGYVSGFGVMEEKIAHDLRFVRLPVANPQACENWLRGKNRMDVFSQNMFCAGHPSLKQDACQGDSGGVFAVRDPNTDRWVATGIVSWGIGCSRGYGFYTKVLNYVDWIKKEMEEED
T1 sequence (P02745 23-245 partner): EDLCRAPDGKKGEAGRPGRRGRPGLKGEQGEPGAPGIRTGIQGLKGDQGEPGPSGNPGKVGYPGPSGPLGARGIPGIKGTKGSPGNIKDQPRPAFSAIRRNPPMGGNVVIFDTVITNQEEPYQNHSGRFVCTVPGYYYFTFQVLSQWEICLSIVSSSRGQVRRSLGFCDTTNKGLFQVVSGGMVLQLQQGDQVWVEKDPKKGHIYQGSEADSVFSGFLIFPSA
T1 sequence (P02746 28-253 partner): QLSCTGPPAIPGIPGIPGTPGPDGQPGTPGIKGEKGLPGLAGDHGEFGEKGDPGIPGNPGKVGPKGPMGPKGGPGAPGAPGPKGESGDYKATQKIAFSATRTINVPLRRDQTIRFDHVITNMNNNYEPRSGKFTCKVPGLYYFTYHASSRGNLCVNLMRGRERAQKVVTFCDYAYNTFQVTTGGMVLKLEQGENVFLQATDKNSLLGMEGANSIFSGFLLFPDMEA
T1 sequence (P02747 29-245 partner): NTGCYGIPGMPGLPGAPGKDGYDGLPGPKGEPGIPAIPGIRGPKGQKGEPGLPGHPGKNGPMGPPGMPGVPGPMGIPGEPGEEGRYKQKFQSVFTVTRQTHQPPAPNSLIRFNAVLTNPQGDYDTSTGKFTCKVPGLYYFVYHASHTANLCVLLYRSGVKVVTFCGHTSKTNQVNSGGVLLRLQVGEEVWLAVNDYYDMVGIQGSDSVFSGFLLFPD

For the compound `O=C([O-])c1cc(NS(=O)(=O)c2cc(S(=O)(=O)Nc3cc(C(=O)[O-])cc(C(=O)[O-])c3)c3cc(S(=O)(=O)Nc4cc(C(=O)[O-])cc(C(=O)[O-])c4)cc(S(=O)(=O)Nc4cc(C(=O)[O-])cc(C(=O)[O-])c4)c3c2)cc(C(=O)[O-])c1.[Na+].[Na+].[Na+].[Na+].[Na+].[Na+].[Na+].[Na+]` [5,5',5",5"'-[1,3,5,7-Naphthalenetetrayltetrakis(sulfonylimino)]tetraisophthalic acid, octasodium salt], the “C-Late 035* Wells” value in experiment [1] came to 2 Wells. Further, the “Cl 026* Wells” value on activated human C1 amounted to 7 Wells. Moreover, in the experiment on shunt pathway, the “C-Shunt Inhibition 036* Wells” value was 6 Wells. Also, in the experiment with complement activity, the “In vivo Activity (Guinea Pigs) % Inhibition Intraperitoneal, 30 minutes” value worked out at 66%; the “In vivo Activity (Guinea Pigs) % Inhibition Intraperitoneal, 60 minutes” value came out at 71%; the “In vivo Activity (Guinea Pigs) % Inhibition Intraperitoneal, 120 minutes” value is given as 76%.

Regarding `O=C(O)c1cc(NS(=O)(=O)c2cc(S(=O)(=O)Nc3cc(C(=O)O)c(C(=O)O)c(C(=O)O)c3)c3cc(S(=O)(=O)Nc4cc(C(=O)O)c(C(=O)O)c(C(=O)O)c4)cc(S(=O)(=O)Nc4cc(C(=O)O)c(C(=O)O)c(C(=O)O)c4)c3c2)cc(C(=O)O)c1C(=O)O` [5,5',5",5'"-[1,3,5,7-Naphthalenetetrayltetrakis(sulfonylimino)]tetra-1,2,3-benzenetricarboxylic acid, dodecasodium salt], the “C-Late 035* Wells” value in experiment [1] stood at 5 Wells. On activated human C1, the “Cl 026* Wells” value worked out at 8 Wells. In the experiment on shunt pathway, the “C-Shunt Inhibition 036* Wells” value is 5 Wells. Further, in the experiment on complement activity, the “In vivo Activity (Guinea Pigs) % Inhibition Intraperitoneal, 30 minutes” value amounted to 80%; the “In vivo Activity (Guinea Pigs) % Inhibition Intraperitoneal, 60 minutes” value amounted to 77%; the “In vivo Activity (Guinea Pigs) % Inhibition Intraperitoneal, 120 minutes” value is on record as 85%.
